Results as given in PMC10122656, “Siglec-6 mediates the uptake of extracellular vesicles through a noncanonical glycolipid binding pocket” (Nature Communications, 2023).
“And” between values parts separate entries of the source, which are not always exact repeats. Identical values can stand only once.

Key:
Experiment in all cases: Liposome over lectin assay (LOLA)
[1] = test system: Siglec-1-Fc R116A; format: binding, human; conditions: Siglec-1 R (arginine mutant); replicates
Procedure: (§1) Siglec-Fc constructs designed by Rodrigues et al.[30] were used in this work. Siglec-Fc constructs were expressed using WT CHO cells in cell culture media as described above with 1% HEPES. Cells incubated as described above for one-week post confluency. The supernatant was harvested and stored at 4 °C.
(§2) The purification was heavily inspired by Rodrigues et al.[30]. The purification of the Siglec-Fcs from supernatant began with Ni^2+ affinity chromatography using an AKTA FPLC equipped with a HisTrap Excel column (GE). The column was equilibrated with fifteen column volumes (CVs) of equilibrium buffer (500 mM NaCl, 20 mM NaPO4H2, pH 7.4). The Siglec-Fc containing supernatant was then loaded in its entirety onto the column. The column was then washed with fifteen CVs of wash buffer (500 mM NaCl, 30 mM imidazole, 20 mM NaPO4H2, pH 7.4). The Siglec-Fc was then eluted in 20 in 1 mL fractions with twenty CVs of elution buffer (500 mM NaCl, 500 mM imidazole, 20 mM NaPO4H2, pH 7.4). Fractions containing Siglec-Fc were compiled and then prepared for the next stage of purification by diluting the fractions 1:4 with buffer W (100 mM Tris–HCl, 150 mM NaCl, 1 mM EDTA, pH 8.0). A Strep-Tactin column (IBA life sciences) was washed with fifteen CVs of buffer W. The Siglec-Fc-buffer W solution was then loaded in its entirety onto the column. The bound Siglec-Fc was then washed with fifteen CVs of buffer W. Siglec-Fc was eluted from the column with 15 column volumes of buffer E (100 mM Tris–HCl, 150 mM NaCl, 1 mM EDTA, 10 mM d-Desthiobiotin, pH 8.0). Fractions containing Siglec-Fc were pooled and dialyzed against PBS to remove any d-Desthiobiotin. After dialysis, Siglec-Fcs were concentrated using an ultra-centrifugal device (30 kDa MWCO) and aliquoted into 5 µg aliquots, and frozen. The Siglec-Fcs were then lyophilized overnight, and the lyophilized Siglec-Fcs were stored at −20 °C.
(§3) Siglec-Fc in PBS was adsorbed to a 96-well flat-bottom fluorescent microplate by adding 1 µg/well and incubating the plate at 4 °C overnight. The plate was then washed with PBS followed by blocking with 5% (m/V) BSA in PBS for 1 h at room temperature. The plate was again washed with PBS and 100 µM liposome in PBS was added to each well. The plate was then incubated at 37 °C for 30 min followed by washing with PBS. PBS was then added to the plate and the fluorescence intensity (λex 640 nm, λem 680 nm) of each well was measured using a Molecular Devices SpectraMAX ® iD5.

[2] = target: T1, Siglec-6-Fc WT (Homo sapiens, UniProt O43699); format: binding; conditions: Siglec-6 WT; replicates
T1 construct: the Siglecs as Fc chimeras; made in house; host or cells: WT CHO cells
Procedure: as §1, §2, §3

[3] = target: T2, Siglec-7-Fc R124A (Homo sapiens, UniProt Q9Y286, R124A); format: binding; conditions: Siglec-7 R (arginine mutant); replicates
T2 construct: the Siglecs as Fc chimeras; made in house; host or cells: WT CHO cells
Procedure: as §1, §2, §3

[4] = target: Siglec-1-Fc WT (Homo sapiens, UniProt Q9BZZ2); format: binding; conditions: Siglec-1 WT; replicates
Procedure: as §1, §2, §3

[5] = target: T3, R122A Siglec-6-Fc (Homo sapiens, UniProt O43699, R122A); format: binding; conditions: Siglec-6 R (arginine mutant); replicates
T3 construct: the Siglecs as Fc chimeras; made in house; host or cells: WT CHO cells
Procedure: as §1, §2, §3

[6] = target: T4, Siglec-7-Fc WT (Homo sapiens, UniProt Q9Y286); format: binding; conditions: Siglec-7 WT; replicates
T4 construct: the Siglecs as Fc chimeras; made in house; host or cells: WT CHO cells
Procedure: as §1, §2, §3

T3 sequence (O43699 27-347 R122A limits assumed): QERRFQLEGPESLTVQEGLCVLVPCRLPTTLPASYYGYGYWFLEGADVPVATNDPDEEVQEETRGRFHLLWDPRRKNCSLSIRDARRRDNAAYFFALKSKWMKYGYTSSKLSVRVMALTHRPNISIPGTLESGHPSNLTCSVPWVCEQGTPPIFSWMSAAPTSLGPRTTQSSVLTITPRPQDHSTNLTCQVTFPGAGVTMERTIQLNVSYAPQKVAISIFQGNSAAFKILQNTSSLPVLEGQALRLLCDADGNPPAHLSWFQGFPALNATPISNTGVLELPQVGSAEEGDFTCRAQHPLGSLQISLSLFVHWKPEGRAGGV
Siglec-1-Fc WT, sequence (Q9BZZ2 20-136 limits assumed): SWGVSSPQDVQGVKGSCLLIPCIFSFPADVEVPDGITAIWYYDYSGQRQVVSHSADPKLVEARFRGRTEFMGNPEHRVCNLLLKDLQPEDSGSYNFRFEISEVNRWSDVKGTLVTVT
T2 sequence (Q9Y286 19-353 R124A limits assumed): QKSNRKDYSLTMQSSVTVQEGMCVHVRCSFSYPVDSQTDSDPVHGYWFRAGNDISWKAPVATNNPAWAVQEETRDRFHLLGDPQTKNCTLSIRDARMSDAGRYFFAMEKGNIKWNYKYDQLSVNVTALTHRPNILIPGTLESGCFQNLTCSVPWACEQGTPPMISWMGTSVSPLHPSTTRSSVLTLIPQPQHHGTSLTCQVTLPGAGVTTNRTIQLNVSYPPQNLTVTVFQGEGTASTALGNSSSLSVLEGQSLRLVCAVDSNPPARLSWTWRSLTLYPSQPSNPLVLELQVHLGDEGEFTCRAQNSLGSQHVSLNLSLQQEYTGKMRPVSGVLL
Siglec-1-Fc R116A, sequence (Q9BZZ2 20-136 R116A limits assumed): as the sequence (Q9BZZ2 20-136 limits assumed) above, with R97A counted along it
T1 sequence (O43699 27-347 limits assumed): as the sequence (O43699 27-347 R122A limits assumed) above, with A96R counted along it
T4 sequence (Q9Y286 19-353 limits assumed): as the sequence (Q9Y286 19-353 R124A limits assumed) above, with A106R counted along it

| Substance | LOLA: GLL binding, fluorescence plate reader (Fig. 2e) [1] | LOLA: GLL binding, fluorescence plate reader (Fig. 2e) [2] | LOLA: GLL binding, fluorescence plate reader (Fig. 2e) [3] | LOLA: GLL binding, fluorescence plate reader (Fig. 2e) [4] | LOLA: GLL binding, fluorescence plate reader (Fig. 2e) [5] | LOLA: GLL binding, fluorescence plate reader (Fig. 2e) [6] |
| --- | --- | --- | --- | --- | --- | --- |
| GD1a | 8.88 and 7.01 and 5.82 and 9.99 and 5.45 | 28.61 and 32.95 and 30.67 and 25.13 and 23.55 | 6.47 and 10.42 and 11.8 and 5.25 and 10.13 | 13.17 and 9.49 and 10.37 and 14.33 and 18.05 | 37.34 and 37.32 and 38.57 and 41.15 and 44.1 | 7.1 and 6.68 and 9.94 and 10.73 and 13.26 |
| GD3 | 6.08 and 3.44 and 4.47 and 3.34 and 3.26 | 33.08 and 30.39 and 25.39 and 23.72 and 21.46 | -0.64 and 18.58 and 8.22 and 12.6 and 8.15 | 9.49 and 6.85 and 10.11 and 9.9 and 7.11 | 36.87 and 29.95 and 29.9 and 34.98 and 32.24 | 10.57 and 10.04 and 18 and 18.66 and 20.44 |
| GM1 | 6.6 and 6.11 and 3.97 and 6.44 and 3.68 | 18.34 and 20.42 and 17.75 and 12.02 and 17.78 | 2.83 and 4.02 and 10.31 and 3.55 and 12.57 | 5.66 and 12.97 and 11.61 and 4.8 and 8.91 | 17.43 and 40.61 and 36.66 and 31.85 and 32.16 | 6.49 and 5.21 and 2.94 and 8.58 and 5.66 |
| GQ1b | 6.93 and 2.97 and 4.43 and 6.13 and 5.67 | 19.03 and 15.89 and 21.18 and 22.9 and 35.39 | 6.14 and 4.56 and 5.96 and 16.03 and 20.32 | 10.86 and 11.87 and 9.36 and 23.13 and 11.98 | 25.13 and 35.2 and 35.69 and 28.06 and 30.69 | 15.3 and 24.18 and 22.56 and 26.04 and 30.34 |
